Measured values reported in patent publication US20240207258A1, “HETEROCYCLIC PDK1 INHIBITORS FOR USE TO TREAT CANCER” (Viracta Therapeutics, Inc., priority 2015, published 2024).

How the values were obtained:
pPDK1 = assay: Western blot, PDK1 phosphorylation in KG-1 cells; format: cell-based; conditions: Homo sapiens; KG-1, 100 nM; read-out: inhibition of pPDK1 levels
Experimental: (§1) For phosphoprotein analyses, cells were seeded into 10 cm petri dishes (10×10^6 cells/dish) in media supplemented with 10% FBS and penicillin/streptomycin. After cells recovered for 1 hr at 37° C., compounds were added in DMSO (0.1% final) and incubated for 4 or 24 hr at 37° C. Cells were then harvested by centrifugation and washed with cold PBS. Cell pellets were resuspended in cell extraction buffer (Invitrogen) supplemented with 2×Halt™ protease and phosphatase inhibitor cocktail (Thermo Scientific), 2 mM sodium orthovanadate, 10 mM EDTA and 4 mM PMSF. Samples were lysed by sonication and incubated on ice for 30 min. Cell debris was removed by centrifugation and protein concentrations were determined using the BCA Protein Assay Kit (Pierce). The clarified lysate was diluted in LDS sample buffer with reducing agent (Life Technologies). After heating to 70° C. samples were cooled and loaded onto 4-12% Bis-Tris gels (Life Technologies) at 50 μg/well. Gels were run at 110 V and proteins were transferred to a PVDF membrane. Membranes were blocked in TBS blocking buffer (Li-Cor Biosciences) for 1 hr. Primary antibodies (Cell Signaling, Sant Cruz Biotechnology) were added (1:1,000 dilution) in blocking buffer with 0.1% Tween-20 and 1:20,000 dilution of β-actin antibody and incubated for 14 hr at 4° C. […] Bands were quantitated using ImageJ.

P-RSK2 [1] = assay: Western blot, RSK2 phosphorylation in A20 cells; format: cell-based, murine; conditions: Mus musculus; A20, 300 nM
Experimental: as §1

P-RSK2 [2] = assay: Western blot, RSK2 phosphorylation in MV4-11 cells; format: cell-based, human
Experimental: (§2) For phosphoprotein analyses, cells were seeded into 10 cm petri dishes (10×10^6 cells/dish) in media supplemented with 10% FBS and penicillin/streptomycin. After cells recovered for 1 hr at 37° C., compounds were added in DMSO (0.1% final) and incubated for 4 or 24 hr at 37° C. Cells were then harvested by centrifugation and washed with cold PBS. Cell pellets were resuspended in cell extraction buffer (Invitrogen) supplemented with 2×Halt™ protease and phosphatase inhibitor cocktail (Thermo Scientific), 2 mM sodium orthovanadate, 10 mM EDTA and 4 mM PMSF. Samples were lysed by sonication and incubated on ice for 30 min. Cell debris was removed by centrifugation and protein concentrations were determined using the BCA Protein Assay Kit (Pierce). The clarified lysate was diluted in LDS sample buffer with reducing agent (Life Technologies). […] Gels were run at 110 V and proteins were transferred to a PVDF membrane. Membranes were blocked in TBS blocking buffer (Li-Cor Biosciences) for 1 hr. Primary antibodies (Cell Signaling, Sant Cruz Biotechnology) were added (1:1,000 dilution) in blocking buffer with 0.1% Tween-20 and 1:20,000 dilution of β-actin antibody and incubated for 14 hr at 4° C. Blots were washed in TBS-T. Label-conjugated goat anti-rabbit secondary antibody (IRdye® 800CW; Li-Cor Biosciences) was added in blocking buffer with 0.1% Tween-20 and 0.02% SDS and incubated for 1 hr. After washing in TBS-T followed by TBS, membranes were scanned on an Odyssey imaging system (Li-Cor Biosciences). Bands were quantitated using ImageJ.

P-PDK1 [3] = assay: Western blot, PDK1 phosphorylation in A20 cells; format: cell-based, murine
Experimental: as §1, with “After heating to 70° C. samples were cooled and loaded onto 4-12% Bis-Tris gels (Life Technologies) at 50 μg/well.” left out

P-RSK2 [4] = assay: Western blot, RSK2 phosphorylation in C1498 cells; format: cell-based, murine; conditions: C1498, 30-100 nM range
Experimental: as §1, with “After heating to 70° C. samples were cooled and loaded onto 4-12% Bis-Tris gels (Life Technologies) at 50 μg/well.” left out

[5] = test system: PDK1 and RSK2 phosphorylation; assay: Western blot pathway modulation, summary over cell lines; format: cell-based
Experimental: as §1, with “After heating to 70° C. samples were cooled and loaded onto 4-12% Bis-Tris gels (Life Technologies) at 50 μg/well.” left out

P-PDK1 [6] = assay: Western blot, PDK1 phosphorylation in MV4-11 cells; format: cell-based, human
Experimental: as §2

P-PDK1 [7] = assay: Western blot, PDK1 phosphorylation in C1498 cells; format: cell-based, murine; conditions: C1498, 30-100 nM range
Experimental: as §1, with “After heating to 70° C. samples were cooled and loaded onto 4-12% Bis-Tris gels (Life Technologies) at 50 μg/well.” left out

P-AKT = assay: Western blot, AKT phosphorylation in A20 cells; format: cell-based, murine
Experimental: as §2

MV4-11 cells = assay: Induction of apoptosis (Annexin V / propidium iodide flow cytometry); format: cell-based, human
Experimental: Cells were seeded in a six-well tissue culture plate in 3 mL complete growth medium (3×10^5 cells/well) and allowed to equilibrate for 1 hr at 37° C. in a humidified incubator with 5% CO2. DMSO (control), test compound, or doxorubicin was added to the wells (0.1% final DMSO concentration). Cells were returned to the incubator for 24 hrs. On the day of analysis 1×10^5 cells were labeled according to manufacturer's instructions and analyzed by flow cytometry (BD FACSCaalibur™, GH) to determine the percent of apoptotic cells (annexin V positive, AV+) and/or apoptotic dead cells (AV+ and propidium iodide positive (PI+)).

[8] = Homo sapiens, MV4-11, FIG. 6C, 30 nM, 4 hrs

SMILES	inhibition at 0.1 µM (pPDK1) [%]	inhibition at 0.3 µM (P-RSK2 [1]) [%]	inhibition at 0.03 µM (P-RSK2 [2]; [8]) [%]	inhibition at 0.1 µM (P-RSK2 [2]; Homo sapiens, MV4-11, 100 nM) [%]	inhibition of RSK2 phosphorylation (P-RSK2 [2]; MV4-11, 30 nM, various times)	P-PDK inhibition plateau (P-PDK1 [3]) [%]	P-RSK2 inhibition (P-RSK2 [4]) [%]	fold more inhibition of PDK1 phosphorylation after 24 hours than 4 hours [5]	fold more potent than GSK-2334470 in inhibiting phosphorylation of both PDK1 and RSK2 ([5]; MV4-11, FIG. 6) [fold]	inhibition at 0.03 µM (P-PDK1 [6]; [8]) [%]	inhibition at 0.1 µM (P-PDK1 [6]; Homo sapiens, MV4-11, 100 nM) [%]	fold decrease in PDK1 phosphorylation between 4 hr and 24 hr exposure (P-PDK1 [6]; MV4-11, 30 nM) [fold]	P-PDK1 inhibition (P-PDK1 [7]) [%]	P-AKT levels (P-AKT)	apoptosis at 100 nM (MV4-11 cells; 100 nM)	apoptosis after 24 hours (MV4-11 cells; 24 hours)
C[C@H](NC(=O)c1nc(C#N)cnc1NCc1ccc(-c2cnc3[nH]nc(N)c3n2)cc1)c1ccc(F)c(F)c1 [Compound 1, 3-[4-(3-Amino-1H-pyrazolo[3,4-b]pyrazin-5-yl)-benzylamino]-6-cyano-pyrazine-2-carboxylic acid [1-(3,4-difluoro-phenyl)-ethyl]-amide]	> 80															
CNc1n[nH]c2ncc(-c3ccc(CNc4ncc(C#N)nc4C(=O)N[C@@H](C)c4ccc(F)c(F)c4)cc3)cc12 [Compound 2, 6-Cyano-3-[4-(3-methylamino-1H-pyrazolo[3,4-b]pyridin-5-yl)-benzylamino]-pyrazine-2-carboxylic acid [1-(3,4-difluoro-phenyl)-ethyl]-amide]		> 90	90	> 95	potent and time-independent	70	> 90	2-5 fold	10	40	90	5	~80	sensitive	induces apoptosis	substantial apoptosis
